These results are taken from patent US20230116972A1, “CD38 MODULATORS AND METHODS OF USE THEREOF” (Cytokinetics, Inc., priority 2021, published 2023).

For test [1], the target named is T1, human CD38 (Homo sapiens, UniProt P28907).
T1 sequence (P28907 1-300): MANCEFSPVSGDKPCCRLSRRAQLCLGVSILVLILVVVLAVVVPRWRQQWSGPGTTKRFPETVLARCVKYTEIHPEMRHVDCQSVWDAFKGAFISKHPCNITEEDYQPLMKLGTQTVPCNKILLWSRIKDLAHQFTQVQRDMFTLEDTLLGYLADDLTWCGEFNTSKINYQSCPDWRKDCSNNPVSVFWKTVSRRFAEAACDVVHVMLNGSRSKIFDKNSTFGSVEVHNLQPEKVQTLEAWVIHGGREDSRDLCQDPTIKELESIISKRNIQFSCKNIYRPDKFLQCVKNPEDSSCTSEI
Description: human recombinant CD38 enzyme assay (hydrolysis of NAD+). Format: biochemical. The settings on record: human recombinant CD38, 0.4 nM enzyme, 62.5 μM NAD+; read-out: hCD38 BioChem IC50. The method in brief: (§1)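 Residual substrate after a one-hour room-temperature incubation of recombinant CD38 with NAD+ and test compound is measured by an ADH/diaphorase coupled resorufin signal (540 nm excitation, 590 nm emission); reduced NAD+ consumption reflects inhibition.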

For test [2], the target named is T2, endogenous CD38 in HL60 cells (Homo sapiens, UniProt P28907).
T2 construct: endogenous in cells; host or cells: HL60 (leukemic cells, treated with all-trans retinoic acid)
T2 sequence (P28907 1-300): T1 sequence (P28907 1-300)
Description: cellular CD38 assay in HL60 cells (cellular NAD levels). Format: cell-based. The settings on record: all-trans retinoic acid, 24 hours, read-out: hCD38 HL60 ATRA NAD Cell Diaphorase IC50. The method in brief: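 Endogenous CD38 inhibition is inferred from NAD levels in HL60 cells after 24 h compound exposure at 20000 cells per well. A lytic cycling readout (0.2 U/mL diaphorase, 0.8 U/mL alcohol dehydrogenase, resazurin, FMN, ethanol, 0.2% Triton X-100, Tris/EDTA pH 8.4) ran 60 min at ambient temperature. Resorufin fluorescence was read at 540/590 nm.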

For test [3], the target named is T3, mouse CD38 (Mus musculus, UniProt P56528).
T3 sequence (P56528 1-304): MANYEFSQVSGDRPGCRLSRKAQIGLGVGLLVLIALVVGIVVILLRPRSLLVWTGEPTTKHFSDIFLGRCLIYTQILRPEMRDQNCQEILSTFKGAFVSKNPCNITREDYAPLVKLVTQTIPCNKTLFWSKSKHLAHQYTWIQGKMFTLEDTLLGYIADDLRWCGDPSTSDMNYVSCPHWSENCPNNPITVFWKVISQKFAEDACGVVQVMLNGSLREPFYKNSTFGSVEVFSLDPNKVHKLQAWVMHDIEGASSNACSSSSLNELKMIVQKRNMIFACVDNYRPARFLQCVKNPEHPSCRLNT
Description: mouse recombinant CD38 enzyme assay (hydrolysis of NAD+). Format: biochemical. The following applies: read-out: mCD38 BioChem IC50. The method in brief: as §1

Regarding `O=C(NC1CCN(c2ccccc2)CC1)c1nccc(-n2ccnc2)n1` [Compound 263, 4-(1H-imidazol-1-yl)-N-(1-phenylpiperidin-4-yl)pyrimidine-2-carboxamide], the results for the half-inhibitory concentration (IC50) in test [1], in test [2] and in test [3] were 252 nM, 12500 nM and 270 nM, respectively.
On to `Cn1cncc1-c1ccnc(C(=O)N[C@H]2CC[C@H](NCC(F)(F)F)CC2)n1` [Compound 264, 4-(1-methyl-1H-imidazol-5-yl)-N-((1r,4r)-4-((2,2,2-trifluoroethyl)amino)cyclohexyl)pyrimidine-2-carboxamide], for which the IC50 in test [1] came to 40.9 nM; in test [2], 2100 nM; in test [3], 15.3 nM.
As to `O=C(N[C@H]1CC[C@H](NCC(F)(F)F)CC1)c1nccc(-n2ccnc2)n1` [Compound 265, 4-(1H-imidazol-1-yl)-N-((1r,4r)-4-((2,2,2-trifluoroethyl)amino)cyclohexyl) pyrimidine-2-carboxamide], the figures for the IC50 in test [1], in test [2] and in test [3] were 83.4 nM, 4170 nM and 35.9 nM, respectively.
For `COCCOc1cc(C(=O)Nc2ccc(C(F)(F)F)nc2)nc(-c2cncn2C)n1` [Compound 267, 6-(2-methoxyethoxy)-2-(1-methyl-1H-imidazol-5-yl)-N-(6-(trifluoromethyl)pyridin-3-yl)pyrimidine-4-carboxamide], in that order: 2.5 nM, 403 nM and 0.3 nM.
For `O=C(N[C@H]1C[C@H](c2ccnc(C(F)(F)F)c2)C1)c1nccc(-n2ccnc2)n1` [Compound 268, 4-(1H-imidazol-1-yl)-N-((1r,3r)-3-(2-(trifluoromethyl)pyridin-4-yl)cyclobutyl)pyrimidine-2-carboxamide], the results for the half-maximal inhibitory concentration (IC50) in test [1], in test [2] and in test [3] were 35.4 nM, 1400 nM and 96.3 nM, respectively.
For `O=C(N[C@H]1C[C@H](c2ccc(C(F)(F)F)nc2)C1)c1nccc(-n2ccnc2)n1` [Compound 269, 4-(1H-imidazol-1-yl)-N-((1r,3r)-3-(6-(trifluoromethyl)pyridin-3-yl)cyclobutyl)pyrimidine-2-carboxamide], in that order: 199 nM, 3950 nM and 175 nM.
For the molecule `Cn1cncc1-c1ccnc(C(=O)N[C@H]2C[C@H](c3ccnc(C(F)(F)F)c3)C2)n1` [Compound 270, 4-(1-methyl-1H-imidazol-5-yl)-N-((1r,3r)-3-(2-(trifluoromethyl)pyridin-4-yl)cyclobutyl)pyrimidine-2-carboxamide], the values for the half-inhibitory concentration (IC50) in test [1], in test [2] and in test [3] were 13.7 nM, 1130 nM and 43.9 nM, respectively.
Consider `Cn1cncc1-c1ccnc(C(=O)N[C@H]2C[C@H](c3ccc(C(F)(F)F)nc3)C2)n1` [Compound 273, 4-(1-methyl-1H-imidazol-5-yl)-N-((1r,3r)-3-(6-(trifluoromethyl)pyridin-3-yl)cyclobutyl)pyrimidine-2-carboxamide], for which the values for the IC50 in test [1], in test [2] and in test [3] were 71.9 nM, 2470 nM and 53.7 nM, respectively.
Consider `Cn1cncc1-c1ccnc(C(=O)N[C@H]2C[C@@H](c3ccc(C(F)(F)F)nc3)C2)n1` [Compound 274, 4-(1-methyl-1H-imidazol-5-yl)-N-((1s,3s)-3-(6-(trifluoromethyl)pyridin-3-yl)cyclobutyl)pyrimidine-2-carboxamide], for which the 50% inhibitory concentration (IC50) in test [1] came out at 404 nM; in test [2], 10800 nM; in test [3] it was 185 nM.
Regarding `Cn1cncc1-c1ccnc(C(=O)N[C@H]2CC[C@H](OC(F)F)CC2)n1` [Compound 275, N-((1r,4r)-4-(difluoromethoxy)cyclohexyl)-4-(1-methyl-1H-imidazol-5-yl)pyrimidine-2-carboxamide], the values for the IC50 in test [1], in test [2] and in test [3] were 31.5 nM, 2210 nM and 15.4 nM, respectively.
For `Cn1cncc1-c1ccnc(C(=O)Nc2ccc(OC(F)F)nc2)n1` [Compound 276, N-(6-(difluoromethoxy)pyridin-3-yl)-4-(1-methyl-1H-imidazol-5-yl)pyrimidine-2-carboxamide], the IC50 in test [1] is 1.4 nM; in test [2], 209 nM; in test [3] it was 4.4 nM.
Take `Cn1cncc1-c1nc(C(=O)N[C@H]2C[C@](O)(c3ccccc3)C2)cc(C2CCOCC2)n1` [Compound 277, N-((1s,3s)-3-hydroxy-3-phenylcyclobutyl)-2-(1-methyl-1H-imidazol-5-yl)-6-(tetrahydro-2H-pyran-4-yl)pyrimidine-4-carboxamide]: the IC50 in test [1] is 7.9 nM; in test [2], 2070 nM; in test [3] it was 10.7 nM.
For `COc1ncc(-c2cncn2C)nc1C(=O)Nc1ccc(C(F)(F)F)nc1` [Compound 279, 3-methoxy-6-(1-methyl-1H-imidazol-5-yl)-N-(6-(trifluoromethyl)pyridin-3-yl)pyrazine-2-carboxamide] the same measures were 5.1 nM, 865 nM and 42.6 nM.
Take `Cn1cncc1-c1nc(C(=O)N[C@@H]2C[C@@H]3[C@H](C2)C3(F)F)cc(C2CCOCC2)n1` [Compound 280, N-((1R,3s,5S)-6,6-difluorobicyclo[3.1.0]hexan-3-yl)-2-(1-methyl-1H-imidazol-5-yl)-6-(tetrahydro-2H-pyran-4-yl)pyrimidine-4-carboxamide]: the figures for the IC50 in test [1], in test [2] and in test [3] were 10.7 nM, 1500 nM and 3.2 nM, respectively.
For `Cn1cncc1-c1nc(C(=O)N[C@H]2CC[C@H](OC(F)F)CC2)cc(C2CCOCC2)n1` [Compound 281, N-((1r,4r)-4-(difluoromethoxy)cyclohexyl)-2-(1-methyl-1H-imidazol-5-yl)-6-(tetrahydro-2H-pyran-4-yl)pyrimidine-4-carboxamide], in that order: 4.1 nM, 1330 nM and 1.3 nM.
As for `Cn1cncc1-c1nc(C(=O)Nc2ccc(OC(F)F)nc2)cc(C2CCOCC2)n1` [Compound 282, N-(6-(difluoromethoxy)pyridin-3-yl)-2-(1-methyl-1H-imidazol-5-yl)-6-(tetrahydro-2H-pyran-4-yl)pyrimidine-4-carboxamide], the half-maximal inhibitory concentration (IC50) is 2.4 nM in test [1], 655 nM in test [2] and 0.7 nM in test [3].
Turning to `Cn1cncc1-c1nc(C(=O)N[C@H]2C[C@H](C(C)(C)O)C2)cc(C2CCOCC2)n1` [Compound 283, N-((1r,3r)-3-(2-hydroxypropan-2-yl)cyclobutyl)-2-(1-methyl-1H-imidazol-5-yl)-6-(tetrahydro-2H-pyran-4-yl)pyrimidine-4-carboxamide], the figures for the concentration for half-maximal inhibition (IC50) in test [1], in test [2] and in test [3] were 18.4 nM, 5690 nM and 4.3 nM, respectively.
Regarding `Cn1cncc1-c1ccnc(C(=O)N[C@H]2C[C@H](C(C)(C)O)C2)n1` [Compound 284, N-((1r,3r)-3-(2-hydroxypropan-2-yl)cyclobutyl)-4-(1-methyl-1H-imidazol-5-yl)pyrimidine-2-carboxamide], the IC50 in test [1] came to 277 nM; in test [2], 11000 nM; in test [3], 59.7 nM.
As to `Cn1cncc1-c1nc(C(=O)Nc2ccc(C(F)(F)F)nc2)cc(C2CCC(F)(F)CC2)n1` [Compound 285, 6-(4,4-difluorocyclohexyl)-2-(1-methyl-1H-imidazol-5-yl)-N-(6-(trifluoromethyl)pyridin-3-yl)pyrimidine-4-carboxamide], the concentration for half-maximal inhibition (IC50) in test [1] stood at 8.6 nM; in test [2], 1240 nM; in test [3] it was 1 nM.
Consider `Cn1cncc1-c1nc(C(=O)NC2CC3(COC3)C2)cc(C2CCC(F)(F)CC2)n1` [Compound 286, 6-(4,4-difluorocyclohexyl)-2-(1-methyl-1H-imidazol-5-yl)-N-(2-oxaspiro[3.3]heptan-6-yl)pyrimidine-4-carboxamide], for which the values for the IC50 in test [1], in test [2] and in test [3] were 8.1 nM, 3730 nM and 1.2 nM, respectively.
Consider `Cn1cncc1-c1nc(C(=O)Nc2ccc(C(F)F)nc2)cc(C2CCC(F)(F)CC2)n1` [Compound 287, 6-(4,4-difluorocyclohexyl)-N-(6-(difluoromethyl)pyridin-3-yl)-2-(1-methyl-1H-imidazol-5-yl)pyrimidine-4-carboxamide], for which the 50% inhibitory concentration (IC50) in test [1] turned out to be 3.1 nM; in test [2], 882 nM; in test [3], 0.7 nM.
For `Cn1cncc1-c1nc(C(=O)N[C@H]2CC[C@H](O)CC2)cc(C2CCC(F)(F)CC2)n1` [Compound 288, 6-(4,4-difluorocyclohexyl)-N-((1r,4r)-4-hydroxycyclohexyl)-2-(1-methyl-1H-imidazol-5-yl)pyrimidine-4-carboxamide], the IC50 in test [1] worked out at 10.3 nM; in test [2], 2580 nM; in test [3], 1 nM.
